Source: patent US6335339B1, “Triazine antiviral compounds” (Scriptgen Pharmaceuticals, Inc., priority 1998, dated 2002)

System: HBV εRNA
Assay: εRNA/oligonucleotide hybridization inhibition assay with rRNA competitor
Format: binding, Hepatitis B virus
Conditions: for IC50: radiolabeled εRNA, 60-fold excess rRNA competitor; for Specificity: ratio RRE+rRNA IC50/εRNA+rRNA IC50, max = inactive in RRE assay
Method in brief: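 Inhibition of hybridization between 25 nM [32P]-εRNA and 100 nM biotinylated complementary oligonucleotide (50 mM Tris-HCl pH 7.5, 200 mM KCl, 5 mM MgCl2, 60 min, 25 °C), hybrids captured by streptavidin filter and counted. Titrations 0.1-200 μM with 60-fold excess rRNA; specificity = RRE+rRNA IC50/εRNA+rRNA IC50.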

Row | Compound | IC50 [µM] | Specificity
1 | Brc1cc2c(cc1C=NNc1nc(NCc3ccccc3)nc(Nc3ccccc3)n1)OCO2 [Compound 43] | 30.1 | max.
2 | FC(F)(F)c1cccc(Nc2nc(Nc3cccc(Br)c3)nc(N3CCOCC3)n2)c1 [Compound 38] | 34.9 | max.
3 | Cc1[nH]c2ccccc2c1C=NNc1nc(Nc2ccccc2)nc(N2CCCCC2)n1 [Compound 88] | 11.7 | 80.2
4 | COc1ccc(C=NNc2nc(Nc3ccccc3)nc(Nc3ccc(C)cc3C)n2)c(OC)c1 [Compound 61] | 42.6 | max.
5 | O=[N+]([O-])c1ccc(C=NNc2nc(Nc3ccccc3)nc(NC3CCCCC3)n2)cc1 [Compound 46] | 23.1 | max.
6 | C(=NNc1nc(Nc2ccccc2)nc(N2CCCCC2)n1)c1ccccc1 [Compound 3] | 66.9 | max.
7 | CCCCN(CCCC)c1nc(NN=Cc2c[nH]c3ccccc23)nc(Nc2ccc([N+](=O)[O-])cc2)n1 [Compound 39] | 39.9 | max.
8 | Cc1[nH]c2ccccc2c1C=NNc1nc(NCc2ccccc2)nc(Nc2ccccc2)n1 [Compound 50] | 39.9 | max.
9 | Cc1[nH]c2ccccc2c1C=NNc1nc(Nc2ccccc2)nc(N2CCOCC2)n1 [Compound 4] | 16.3 | max.
10 | O=[N+]([O-])c1ccc(Nc2nc(N/N=C/c3cccc(Cl)c3)nc(N3CCCCC3)n2)cc1 [Compound 41] | 24.9 | max.
11 | O=[N+]([O-])c1cc(C=NNc2nc(Nc3ccccc3)nc(N3CCOCC3)n2)ccc1Cl [Compound 52] | 66 | max.
12 | CCN(CC)c1nc(NN=Cc2cc([N+](=O)[O-])ccc2OC)nc(Nc2cc(C)ccc2C)n1 [Compound 85] | 53.8 | max.
13 | C(=Cc1ccccc1)C=NNc1nc(NCc2ccccc2)nc(Nc2ccccc2)n1 [Compound 91] | 17.1 | 46.8
14 | Cc1ccc(Nc2nc(NN=Cc3ccc4c(c3)OCO4)nc(Nc3ccccc3)n2)c(C)c1 [Compound 51] | 39.9 | max.
15 | CC(C)c1ccc(C=NNc2nc(Nc3ccc([N+](=O)[O-])cc3)nc(N3CCCCC3)n2)cc1 [Compound 62] | 54.3 | max.
16 | Cc1ccc(Nc2nc(NN=Cc3ccc(Cl)cc3)nc(Nc3ccccc3)n2)c(C)c1 [Compound 42] | 30 | max.
17 | CCN(CC)c1nc(NN=Cc2ccc(F)cc2)nc(Nc2ccc([N+](=O)[O-])cc2)n1 [Compound 68] | 33 | max.
18 | CC(C)c1ccc(C=NNc2nc(Nc3ccc([N+](=O)[O-])cc3)nc(N3CCCCCC3)n2)cc1 [Compound 56] | 42.1 | max.
19 | COc1ccc(C=NNc2nc(Nc3ccc([N+](=O)[O-])cc3)nc(N3CCCCC3)n2)cc1 [Compound 44] | 35 | max.
20 | Cc1ccc(Nc2nc(NN=Cc3ccc(Cl)c(Cl)c3)nc(Nc3ccccc3)n2)c(C)c1 [Compound 40] | 21.9 | max.
21 | COc1ccccc1C=NNc1nc(Nc2ccc([N+](=O)[O-])cc2)nc(Nc2ccc(C)c(C)c2)n1 [Compound 94] | 12 | 20.8
22 | CCN(CC)c1nc(N/N=C/c2ccc([N+](=O)[O-])cc2)nc(Nc2cc(C)ccc2C)n1 [Compound 63] | 69 | max.
23 | CC(C)(C)Nc1nc(NCc2ccccc2)nc(NN=Cc2ccc3c(c2)OCO3)n1 [Compound 67] | 47.7 | max.
24 | CCCCN(CCCC)c1nc(NN=C(C)c2ccccc2)nc(Nc2ccc([N+](=O)[O-])cc2)n1 [Compound 74] | 126 | max.
25 | CNc1nc(NN=Cc2ccccc2[N+](=O)[O-])nc(Nc2ccccc2)n1 [Compound 65] | 99.9 | max.
26 | Cc1ccc(Nc2nc(NN=Cc3cccc(Br)c3)nc(Nc3ccccc3)n2)c(C)c1 [Compound 49] | 35 | max.
27 | Oc1ccc(Nc2nc(Nc3cccc(C(F)(F)F)c3)nc(N3CCOCC3)n2)cc1 [Compound 53] | 70.1 | max.
28 | CC(C)(C)Nc1nc(NCc2ccccc2)nc(N/N=C/c2ccccc2F)n1 [Compound 93, 2-fluorobenzaldehyde N-[4-(benzylamino)-6-(tert-butylamino)-1,3,5-triazin-2-yl]hydrazone] | 12.7 | max
